As usually defined, the solubility is the concentration that dissolves in the medium under given conditions. A lower solubility goes with a poorly soluble substance.

Format in all cases: physicochemical
A short description of series [1]: Polymorphism screening / solid form stability and conversion. Particulars: for thermodynamic stability / conversion of solid form: polymorphism screening, approximately 3000 crystallization experiments. As to the method: The amorphous form is non-crystalline and hygroscopic. […] In approximately 3000 crystallization experiments performed during polymorphism screenings, no additional polymorphic form was observed. Based on DSC measurements as well as temperature-controlled XRPD, no conversion of the polymorphic form is observable under heating until melting occurs. […] DSC thermograms were recorded using a Mettler-Toledo instrument (DSC820/821e/1; FRS05 sensor). Approximately 2-6 mg of the sample were placed in aluminum pans and sealed with aluminum lids. Lids were automatically pierced prior to heating. Generally, samples under nitrogen were heated at a rate of 10 K/min to a maximum of 250° C.

Series [2] is described as follows: Hygroscopicity by dynamic moisture sorption/desorption (DVS). Particulars: 25° C.; for reversible weight gain or loss: between 0% RH and 90% RH; for conversion during dynamic vapor sorption experiments: time scale of standard DVS experiments, 0-90% RH; for hygroscopicity classification: weight increase 0% RH to 90% RH. As to the method:
Moisture sorption/desorption data were collected on a DVS-1/DVS-HT/DVS-intrinsic (SMS Surface Measurements Systems) moisture balance system. The sorption/desorption isotherms were measured stepwise in a range of 0% RH (relative humidity) to 90% RH at 25° C. A weight change of <0.002 mg/min was chosen as a criterion to switch to the next level of RH (with a maximum equilibration time of 24 hours, if the weight criterion was not met). The data were corrected for the initial moisture content of the samples; that is, the weight after drying the sample at 0% RH was taken as the zero point. The hygroscopicity of a given substance is characterized by the increase in mass when the RH was raised from 0% RH to 90% RH as given in Table 7. [table]

Series [3] can be described thus: Intrinsic dissolution rate (USP <1088>). Particulars: for Intrinsic Dissolution Rate: pellet 0.5 cm^2, 0.05M Acetate Buffer pH = 4.5, 37 C., 100 RPM, UV at 278 nm. The text has this: For each intrinsic dissolution measurement, a pellet was produced from the crystalline Form A or the amorphous form sample using an applied load of approximately 15 kN into a flat disk (surface area=0.5 cm^2). After compaction, each pellet was checked by XRPD to confirm that no polymorphic transformation had occurred during the pelleting process. [table] Batches of Form A and the amorphous form (from freeze-drying) were used to determine the intrinsic dissolution rate of both solid forms. Intrinsic dissolution allows the characterization of different crystal forms by exposing a constant surface area to the dissolution medium.

A short description of series [4]: Water solubility. Particulars: at 25° C.
The nature of series [5]: Storage stability at 25° C/0% RH and 25° C/90% RH. Particulars: 25° C/0% relative humidity (RH) and 25° C/90% RH.
The mark [6] stands for this setting: listed as crystalline fumarate salt of Compound I.

“Also recorded” adds a separate entry of the source. Structures can show the parent of a compound that is named as a salt.

As for `O=C(c1ccc(F)c(F)c1Nc1ccc(I)cc1F)N1CC(O)([C@@H]2CCCCN2)C1` [the amorphous form], in series [1] (2-propanol/water 88:12, 20° C.), the “conversion in slurry experiment” value was “converted rapidly into Form A”. Besides, the “thermodynamic stability / conversion of solid form” value in series [1] is “converts to crystalline Form A”; in series [1] (listed as The amorphous form), “convert to Form A by heating and by solvent mediated phase transition in water”. In series [2] (listed as the amorphous from), the “reversible weight gain or loss” value was determined as 12.1%. Also, in series [2], the “conversion during dynamic vapor sorption experiments” value is “no conversion was observed”. Further, the hygroscopicity classification entry in series [2], in series [2] (listed as The amorphous form) and in series [2] (listed as the amorphous from) was “hygroscopic” in each case. In addition, the “intrinsic dissolution rate relative to crystalline Form A” value in series [3] (amorphous form vs Form A) is on record as “approximately 35 times”. For the same compound, in series [3], the “Intrinsic Dissolution Rate” value came out at 2.6996 mg*cm−2*min−1.

With `O=C(c1ccc(F)c(F)c1Nc1ccc(I)cc1F)N1CC(O)([C@@H]2CCCCN2)C1` [Form A, crystalline fumarate salt of (S)-[3,4-difluoro-2-(2-fluoro-4-iodophenylamino)phenyl] [3-hydroxy-3-(piperidin-2-yl)azetidin-1-yl]-methanone], the “thermal stability by DSC” value in series [1] (DSC) was “stable up to the melting point of 239 °C”. For the same compound, the “thermodynamic stability / conversion of solid form” value in series [1] was “thermodynamically stable form”. For the same compound, the “thermodynamic stability / conversion of solid form” value in series [1] (setting [6]) is given as “thermodynamically stable”. Also, in series [2], the “reversible weight gain or loss” value was determined as 0.1%, the “conversion during dynamic vapor sorption experiments” value was “no conversion was observed” and the hygroscopicity classification entry is “non-hygroscopic; also recorded: nonhygroscopic”. Further, the hygroscopicity classification entry in series [2] (setting [6]) was “non-hygroscopic”. The compound also gave a solubility in series [4] of 1600 µg/mL. Further, in series [3], the “Intrinsic Dissolution Rate” value is listed as 0.0756 mg*cm−2*min−1. Besides, the “change in assay, purity, moisture and dissolution” value in series [5] is reported as “no change”.

Source of the values: US11254649B2, “Crystalline fumarate salt of (S)-[3,4-difluoro-2-(2-fluoro-4-iodophenylamino)phenyl] [3-hydroxy-3-(piperidin-2-yl) azetidin-1-yl]-methanone” (Exelixis, Inc., priority 2015, dated 2022).
